According to patent publication US20090239894A1, “Stabilized aqueous solutions of ergoline compounds” (priority 2008, published 2009):
Read-outs that look alike come from different tables or passages of the source.

Experiments:
[1] = cited from earlier work
[2] = Solubility in water / phosphate-buffered solution (pH 7.4)
[3] = Procedure: Solutions of lisuride hydrogen maleate with a concentration of 2 mg active ingredient per 3 mL solution were investigated with regard to their temperature-dependent stability. These solutions were buffered using a citrate buffer system, so that the pH value of the pure medium was adjusted to 5.1, 4.5 and 3.5. Aqueous solutions of citric acid monohydrate and trisodium citrate dihydrate (0.53 mM each) were prepared.
Suitable mixing of these solutions yielded aqueous buffer systems with a pH of 4.5 and/or 3.5. After 33.3 mg lisuride hydrogen maleate had been weighed out in a scaled 50 mL flask, 40 mL of the corresponding buffer medium was added. The flasks were agitated for several minutes and then exposed to ultrasound for several minutes until the active ingredient was completely dissolved. The solutions were cooled to room temperature and topped off to the mark with buffer medium.
In the case of the more strongly basic medium (pH 5.1), a supply solution was prepared, containing citric acid monohydrate (0.38 mM) and trisodium citrate dihydrate (0.68 mM). This was used to dissolve the active ingredient. In principle, double-distilled water was used to prepare the solutions.
The resulting solutions were stored under three different conditions: under refrigeration at 6 to 8° C., at room temperature (25° C.) and at an elevated temperature of 40° C. The solutions were stored in sealed glass ampoules which were wrapped with aluminum foil for protection from light. After suitable intervals of time, samples were analyzed by means of a specific reverse phase HPLC method with UV detection (running time 30 min, retention time of lisuride ˜13 min).

[4] = 60° C., one week, dark
Procedure: The additives used were propylene glycol and Cremophor ELP in concentrations between 1.00% and 10.00%.
The solutions were prepared by analogy with the procedure used in examples 1 and 2.
The solutions were stored in the dark in glass containers at 60° C. for one week.

[5] = propylene glycol as low-dose additive (less than 10%)
[6] = 9% propylene glycol; for Average area (percent of lisuride peak area relative to total peak area): no buffer
Procedure: An aqueous solution of lisuride hydrogen maleate which additionally contained 9% propylene glycol was investigated. The active ingredient concentration was adjusted to 2 mg per 3 mL. No buffer system was added. The remaining procedure included weighing 33.3 mg of the active ingredient into a scaled 50 mL flask, then adding the propylene glycol (4.5 g) and also adding 40 mL water. The flask was agitated for several minutes and then exposed to ultrasound until the active ingredient was completely dissolved. The flask was cooled to room temperature and topped off with double-distilled water up to the mark.
The solution was poured into transparent glass ampoules with a volume of 1 mL. These ampoules were sealed airtight and wrapped with aluminum foil to protect them from light. The ampoules were each stored at 6-8° C., 25° C. and 40° C.

## CC(O)CO (centres unmarked) [propylene glycol, 1,2-propanediol (propylene glycol)]
[1]
  estimated amount acceptable as a daily oral dose: 25 mg/kg body weight

## CCN(CC)C(=O)N[C@H]1C=C2c3cccc4[nH]cc(c34)C[C@H]2N(C)C1 [lisuride]
[2]; free lisuride, calculated from solubility data of active ingredients/salts (Zimmermann 1983)
  solubility (estimated): ~2.2 mg/100 mL

## CCCN1C[C@@H](NC(=O)N(CC)CC)C[C@@H]2c3cccc4[nH]cc(c34)C[C@H]21 [proterguride]
[2]; free compound, phosphate-buffered solution (pH 7.4)
  solubility: 2.6 mg/100 mL
[2]; water
  solubility in water relative to lisuride: comparable to that of lisuride

## CCN(CC)C(=O)N[C@H]1C=C2c3cccc4[nH]cc(c34)C[C@H]2N(C)C1.O=C(O)/C=C\C(=O)O [lisuride hydrogen maleate]
[3]; citrate buffer pH 3.5, 6-8° C., t 0 d
  Average area (percent of lisuride peak area relative to total peak area): 99.87%
[3]; citrate buffer pH 3.5, 6-8° C., t 7 d
  Average area (percent of lisuride peak area relative to total peak area): 99.92%
[3]; citrate buffer pH 3.5, 6-8° C., t 30 d
  Average area (percent of lisuride peak area relative to total peak area): 99.80%
[3]; citrate buffer pH 3.5, 6-8° C., t 90 d
  Average area (percent of lisuride peak area relative to total peak area): 99.57%
[3]; citrate buffer pH 3.5, 6-8° C., t 180 d
  Average area (percent of lisuride peak area relative to total peak area): 99.22%
[3]; citrate buffer pH 3.5, 25° C., t 0 d
  Average area (percent of lisuride peak area relative to total peak area): 99.87%
[3]; citrate buffer pH 3.5, 25° C., t 7 d
  Average area (percent of lisuride peak area relative to total peak area): 99.89%
[3]; citrate buffer pH 3.5, 25° C., t 30 d
  Average area (percent of lisuride peak area relative to total peak area): 99.37%
[3]; citrate buffer pH 3.5, 25° C., t 90 d
  Average area (percent of lisuride peak area relative to total peak area): 98.70%
[3]; citrate buffer pH 3.5, 25° C., t 180 d
  Average area (percent of lisuride peak area relative to total peak area): 94.14%
[3]; citrate buffer pH 3.5, 40° C., t 0 d
  Average area (percent of lisuride peak area relative to total peak area): 99.87%
[3]; citrate buffer pH 3.5, 40° C., t 7 d
  Average area (percent of lisuride peak area relative to total peak area): 98.89%
[3]; citrate buffer pH 3.5, 40° C., t 30 d
  Average area (percent of lisuride peak area relative to total peak area): 90.41%
[3]; citrate buffer pH 3.5, 40° C., t 90 d
  Average area (percent of lisuride peak area relative to total peak area): 73.37%
[3]; citrate buffer pH 3.5, 40° C., t 180 d
  Average area (percent of lisuride peak area relative to total peak area): 69.91%
[3]; citrate buffer pH 4.5, 6-8° C., t 0 d
  Average area (percent of lisuride peak area relative to total peak area): 99.79%
[3]; citrate buffer pH 4.5, 6-8° C., t 7 d
  Average area (percent of lisuride peak area relative to total peak area): 99.88%
[3]; citrate buffer pH 4.5, 6-8° C., t 30 d
  Average area (percent of lisuride peak area relative to total peak area): 99.73%
[3]; citrate buffer pH 4.5, 6-8° C., t 90 d
  Average area (percent of lisuride peak area relative to total peak area): 99.75%
[3]; citrate buffer pH 4.5, 6-8° C., t 180 d
  Average area (percent of lisuride peak area relative to total peak area): 99.11%
[3]; citrate buffer pH 4.5, 25° C., t 0 d
  Average area (percent of lisuride peak area relative to total peak area): 99.79%
[3]; citrate buffer pH 4.5, 25° C., t 7 d
  Average area (percent of lisuride peak area relative to total peak area): 99.84%
[3]; citrate buffer pH 4.5, 25° C., t 30 d
  Average area (percent of lisuride peak area relative to total peak area): 99.26%
[3]; citrate buffer pH 4.5, 25° C., t 90 d
  Average area (percent of lisuride peak area relative to total peak area): 98.14%
[3]; citrate buffer pH 4.5, 25° C., t 180 d
  Average area (percent of lisuride peak area relative to total peak area): 95.90%
[3]; citrate buffer pH 4.5, 40° C., t 0 d
  Average area (percent of lisuride peak area relative to total peak area): 99.79%
[3]; citrate buffer pH 4.5, 40° C., t 7 d
  Average area (percent of lisuride peak area relative to total peak area): 98.82%
[3]; citrate buffer pH 4.5, 40° C., t 30 d
  Average area (percent of lisuride peak area relative to total peak area): 94.96%
[3]; citrate buffer pH 4.5, 40° C., t 90 d
  Average area (percent of lisuride peak area relative to total peak area): 90.39%
[3]; citrate buffer pH 4.5, 40° C., t 180 d
  Average area (percent of lisuride peak area relative to total peak area): 87.71%
[3]; citrate buffer pH 5.1, 6-8° C., t 0 d
  Average area (percent of lisuride peak area relative to total peak area): 100.00%
[3]; citrate buffer pH 5.1, 6-8° C., t 7 d
  Average area (percent of lisuride peak area relative to total peak area): 99.90%
[3]; citrate buffer pH 5.1, 6-8° C., t 30 d
  Average area (percent of lisuride peak area relative to total peak area): 99.72%
[3]; citrate buffer pH 5.1, 6-8° C., t 90 d
  Average area (percent of lisuride peak area relative to total peak area): 99.59%
[3]; citrate buffer pH 5.1, 6-8° C., t 180 d
  Average area (percent of lisuride peak area relative to total peak area): 99.29%
[3]; citrate buffer pH 5.1, 25° C., t 0 d
  Average area (percent of lisuride peak area relative to total peak area): 100.00%
[3]; citrate buffer pH 5.1, 25° C., t 7 d
  Average area (percent of lisuride peak area relative to total peak area): 99.79%
[3]; citrate buffer pH 5.1, 25° C., t 30 d
  Average area (percent of lisuride peak area relative to total peak area): 99.36%
[3]; citrate buffer pH 5.1, 25° C., t 90 d
  Average area (percent of lisuride peak area relative to total peak area): 98.64%
[3]; citrate buffer pH 5.1, 25° C., t 180 d
  Average area (percent of lisuride peak area relative to total peak area): 95.45%
[3]; citrate buffer pH 5.1, 40° C., t 0 d
  Average area (percent of lisuride peak area relative to total peak area): 100.00%
[3]; citrate buffer pH 5.1, 40° C., t 7 d
  Average area (percent of lisuride peak area relative to total peak area): 98.86%
[3]; citrate buffer pH 5.1, 40° C., t 30 d
  Average area (percent of lisuride peak area relative to total peak area): 94.71%
[3]; citrate buffer pH 5.1, 40° C., t 90 d
  Average area (percent of lisuride peak area relative to total peak area): 90.99%
[3]; citrate buffer pH 5.1, 40° C., t 180 d
  Average area (percent of lisuride peak area relative to total peak area): 87.98%
[3]; citrate-buffered (pH 5.1, 4.5, 3.5), room temperature, within 180 days
  decomposition of the active ingredient: 5%
[3]; citrate-buffered, storage at 40° C.
  decomposition of the active ingredient: up to 30%
[3]; citrate-buffered, storage under refrigeration
  decomposition of the active ingredient: approximately 0.7%
[3]; citrate-buffered, stored at 40° C.
  discoloration of the solutions: significant yellow discoloration after only 30 days, turning brown after another 60 days
[4]; 1% Cremophor ELP
  degradation of the active ingredient: 14.3%
[4]; 10% Cremophor ELP
  degradation of the active ingredient: 21.3%
[4]; propylene glycol
  remaining active ingredient content: 92.5%
[5]
  solubility of the active ingredient with propylene glycol: improved solubility
[6]; elevated temperature
  discoloration of the solutions: slight yellow discoloration was observed only after a storage time of 90 days
[6]; 6-8° C., t 0 d
  Average area (percent of lisuride peak area relative to total peak area): 99.80%
[6]; 6-8° C., t 7 d
  Average area (percent of lisuride peak area relative to total peak area): 99.79%
[6]; 6-8° C., t 30 d
  Average area (percent of lisuride peak area relative to total peak area): 99.67%
[6]; 6-8° C., t 90 d
  Average area (percent of lisuride peak area relative to total peak area): 99.52%
[6]; 6-8° C., t 180 d
  Average area (percent of lisuride peak area relative to total peak area): 99.36%
[6]; 25° C., t 0 d
  Average area (percent of lisuride peak area relative to total peak area): 99.80%
[6]; 25° C., t 7 d
  Average area (percent of lisuride peak area relative to total peak area): 99.79%
[6]; 25° C., t 30 d
  Average area (percent of lisuride peak area relative to total peak area): 99.46%
[6]; 25° C., t 90 d
  Average area (percent of lisuride peak area relative to total peak area): 99.15%
[6]; 25° C., t 180 d
  Average area (percent of lisuride peak area relative to total peak area): 98.35%
[6]; 40° C., t 0 d
  Average area (percent of lisuride peak area relative to total peak area): 99.80%
[6]; 40° C., t 7 d
  Average area (percent of lisuride peak area relative to total peak area): 99.33%
[6]; 40° C., t 30 d
  Average area (percent of lisuride peak area relative to total peak area): 97.59%
[6]; 40° C., t 90 d
  Average area (percent of lisuride peak area relative to total peak area): 94.06%
[6]; 40° C., t 180 d
  Average area (percent of lisuride peak area relative to total peak area): 89.76%
[6]; refrigeration, 180 days
  active ingredient decomposed: approximately 0.4%
[6]; room temperature, 180 days
  remaining active ingredient content in comparison with the initial concentration: 98.4%
[6]; storage at 40° C.
  active ingredient decomposed: approximately 10%
[6]; 6-8° C., 25° C. and 40° C.
  stability compared with solutions without propylene glycol (Example 1): significantly more stable
